# Reference: patent US8053417B2, “Hexosylceramides as adjuvants and their uses in pharmaceutical compositions” (Helmholtz-Zentrum fuer Infektionsforschung GmbH, priority 2005, dated 2011)
# How the values were obtained:
# [1] = test system: Unstimulated spleen cells; assay: In vitro stimulation of unstimulated spleen cells ([3H]thymidine uptake); type: cell-based, mice; conditions: 4 days
# Description: Experimental protocol: Spleens from female BALB/c (H-2d, Harlan Winkelmann) or CD1d−/− (Jackson Laboratories) mice of 6 weeks of age were removed and pooled for analysis of cellular immune responses. Cells were grown in RPMI 1640 supplemented with 10% fetal calf serum, 100 U/ml of penicillin, 50 μg/ml of streptomycin, 5×10^−5 M 2-mercaptoethanol and 1 mM L-glutamine (GIBCO BRL, Karlsruhe, Germany) and maintained at 37° C. in a humidified 5% CO2 atmosphere. Spleen cell suspensions were adjusted to 5×10^6 cells/ml in complete medium, cells were seeded with 100 μl per well in a flat-bottomed 96-well microtiter plate (Nunc) and plates were incubated for 4 days. Unstimulated spleen cells were incubated in the presence of different concentrations of the new adjuvants to analyze the in vitro stimulation capacity of alphaGalCerMPEG. T cell mediated immune responses were investigated at day 38 by measuring the proliferation of cells recovered from spleens after in vitro restimulation with β-Gal. […] Cells were then harvested on paper filters (Filtermat A; Wallac, Freiburg, Germany) by using a cell harvester (Inotech, Wohlen, Switzerland), and the amount of incorporated [3H]thymidine into the DNA of proliferating cells was determined by a β-scintillation counter (Wallac 1450, Micro-Trilux). The results are expressed as the arithmetic mean of [3H]thymidine uptake in cpm.
# [2] = background statement; cited from earlier work
# YAC-1 cells = assay: 51Cr-release assay with splenocytes of injected mice as effectors and YAC-1 cells as targets for NK cells; type: in vivo
# Description: Experimental protocol: Mice received 10 μg of alphaGalCer or alphaGalCerMPEG by s.c. route, whereas control animals were injected by intraperitoneal route with 100 μg of CpG. After 2 days, they were sacrified and their splenocytes were used as effector cells in a standard 51Cr-release assay using YAC-1 cells as targets for NK cells. Effector cells were washed and their concentration was adjusted to 1×10^6/ml. In parallel, target cells were incubated in RPMKI medium without FCS containing 100 μCi of 51Cr for 2 h. Then, target cells were extensively washed with RPMI medium containing FCS and co-incubated in triplicates with effector cells at different effector:target (E:T) ratios. After 4 h, cells were centrifuged and the radioactivity present in supernatants was measured by scintillation counting. Maximal lysis was determined after lysis with 5% […], whereas spontaneous lysis was measured in supernatants of untreated target cells. Results are expressed as percentage of lysed cells, accordingly to the formula: (sample−spontaneous lysis)/(maximal lysis−spontaneous lysis)×100.
# [3] = test system: in vitro re-stimulated spleen cells; assay: Cytometric Bead Array of cytokines in supernatants of in vitro re-stimulated spleen cells from vaccinated mice; type: in vivo; conditions: parenteral administration (s.c.) with β-Gal
# Description: To characterize the type of Th response stimulated following immunization, the content of IFN-γ, IL-2, IL-6, IL-10, MCP-1, and TNFα was measured in supernatants from in vitro re-stimulated spleen cells (FIGS. 8 and 9) by the Cytometric Bead Array. Culture supernatants from proliferating cells were collected on days 2 and 4, and stored at −70° C. Determinations of IFN-γ, TNFα, IL-2, IL-6, IL-10 and MCP-1 were performed by cytometric bead array analysis using the commercial kit from BectonDickinson, according to the manufacturer's instructions. A standard curve was generated for each cytokine by using the corresponding recombinant murine cytokines (Pharmingen). Probes were incubated at room temperature for additional 2 h. The probes were analyzed subsequently by flow cytometry as described in the protocol of BD.
# [4] = test system: spleens of vaccinated mice; assay: Elispot of beta-Gal specific cytokine secreting cells in spleens of vaccinated mice; type: in vivo
# Description: Experimental protocol: Spleens from vaccinated mice were removed and pooled for analysis of cellular immune responses. The protocol for vaccination was identical to the protocol described in Example 3. Cells were grown in RPMI 1640 supplemented with 10% fetal calf serum, 100 U/ml of penicillin, 50 μg/ml of streptomycin, 5×10^−5 M 2-mercaptoethanol and 1 mM L-glutamine (GIBCO BRL, Karlsruhe, Germany) and maintained at 37° C. in a humidified 5% CO2 atmosphere. Lymph node and spleen cell suspensions were adjusted to 5×10^6 cells/ml in complete medium, cells were seeded with 100 μl per well in a flat-bottomed 96-well microtiter plate (Nunc) and plates were incubated 24 h (IFNgamma) or 48 h (IL-2 and IL-4) in the absence or presence of a beta-Gal peptide (TPHARIGL) encompassing a MHC class I-restricted epitope (for IFNgamma) or the beta-Gal protein (for IL-2 and IL-4), at a concentration of 10 μM. Then, cells were removed and the plates processed according to manufacture's instructions. Colored spots were counted with a C.T.L. Elispot reader and analysed using the ImmunoSpot image analyzer software v3.2.
# Thus, to further characterize the T helper responses, the number of beta-Gal specific IFNgamma, IL-2 and IL-4 secreting cells present in spleens of vaccinated mice was determined. In agreement with the above results for IgG isotypes, high numbers of IL-4 secreting cells were detected in mice receiving alphaGalCerMPEG or alphaGalCer (FIG. 10).
# C57BI6 mice = assay: VITAL assay (in vivo CTL), lysis of OVA peptide-pulsed target cells in immunized mice; conditions: 10 μg adjuvant with 50 μg Ovalbumin
# Description: Experimental protocol: Six to eight weeks-old female C57BI6 mice were purchased from Harlan Winkelmann GmbH (Borchen, Germany) and treated in accordance with local and European Community guidelines. Groups of 5 mice each were immunized on day 1, 14 and 28 with 50 μg Ovalbumin (Sigma, Germany) alone or with 10 μg alphaGalCerMPEG or alphaGalCer. For intranasal immunization, 10 μl were applied to each naris, whereas for the s.c. injection Ovalbumin (ova) with or without alphaGalCerMPEG or alphaGalCer was resuspended in a volume of 50 μl PBS per animal. The determination of the in vivo lymphocyte-mediated cytotoxicity followed a protocol described by Hermans et. Al. (Herman, I. F., et. Al., 2004, The vital assay, J Immunol Methods, 285, 25-40). A suspension of splenocytes from naïve mice was depleted of red cells and split into two equal portions. The target cell preparation was labelled with a high concentration (1 μM) of CFSE (Molecular Probes) and pulsed for 1 h at 37° C. with the dominant OVA peptide (aa 257-264) at a concentration of 15 μg/ml. […] Cells from spleens were analyzed by flow cytometry after 16 h and 40 h, with the FACScalibur using the software BD cell Quest Pro. […] Cytotoxic activity was assessed with any variability in the proportion of cells in the different target populations assessed in a non-immunized control group for CTL assays.
smiles,measurement,setting,value
"CCCCCCCCCCCCCCCCCCCCCCCCCC(=O)N[C@@H](CO[C@H]1O[C@H](CO)[C@H](O)[C@H](O)[C@H]1O)[C@H](O)[C@H](O)CCCCCCCCCCCCCC [alphaGalCer, alpha-Galactosylceramide]",stimulation of unstimulated spleen cells with different concentrations,[1],no dose dependent increase
same,solubility in aqueous solvents,[2],poor
same,lysis of YAC-1 cells,"YAC-1 cells; effector:target ratio 50:1, splenocytes 2 days after injection",34%
same,lysis of YAC-1 cells,"YAC-1 cells; effector:target ratio 100:1, splenocytes 2 days after injection",37%
same,secretion of IFNgamma,[3],significant enhanced secretion
same,secretion of IL-10,[3],significant enhanced secretion
same,secretion of TNFalpha,[3],significant enhanced secretion
same,number of IL-4 secreting cells,"[4]; spleens of vaccinated mice, beta-Gal protein 10 μM, 48 h",high numbers
same,number of IFNgamma secreting cells,"[4]; stimulation with MHC class I restricted peptide, 24 h",increased to a significant minor extent
same,number of IL-2 secreting cells,"[4]; stimulation with β-Gal protein, 48 h",increased to a significant minor extent
same,fold increase of the cytotoxic potential of splenocytes with respect to OVA antigen alone (5%),C57BI6 mice,6.4 fold
same,specific lysis of peptide-coated target cells,"C57BI6 mice; day 1, 14 and 28",30%
